Assay results reported in patent US20120035244A1, “PARP1 TARGETED THERAPY” (THE REGENTS OF THE UNIVERSITY OF MICHIGAN, priority 2010, published 2012).
“Also recorded” adds a separate entry of the source.

How the values were obtained:
MDA-MB-231 (BRCA1/2 WT) = assay: CAM xenograft tumors, MDA-MB-231; type: in vivo, chicken embryo; conditions: Olaparib treatment
Protocol: The CAM assay was performed as described previously (Zijlstra, A., et al., Cancer research 62, 7083-7092 (2002)). Briefly, fertilized eggs were incubated in a rotary humidified incubator at 38° C. with for 10 days. After releasing the CAM by applying mild amount of low pressure to the hole over the air sac and cutting a square 1-cm^2 window encompassing a second hole near the allantoic vein, cultured human cells that had been pre-treated with siRNA as indicated were detached by trypsinization and re-suspended in complete medium prior to implantation of 2×10^6 cells adjacent to the mesenchyme in each egg. The windows were subsequently, sealed and the eggs were returned to a stationary incubator. Cells were then treated as indicated with 40 mg/kg body weight Olaparib which was administered on day 13, 15 and 17. Day 18 embryos were sacrificed. Tumors were then excised and weighed. […] After incubation of either the metastasis or intravasation assays, the extra-embryonic tumor and CAM, as well as the embryonic liver were harvested and analyzed for the presence of tumor cells by quantitative human alu-specific PCR. […] Quantification of human cells in the extracted DNA was done as described^14. Fluorogenic TaqMan qPCR probes were applied as above, and DNA copy numbers were quantified.

DU145 xenografts = assay: DU145 mouse xenograft model; type: in vivo, mice; conditions: DU145 (ETS negative), Olaparib
Description: Olaparib was obtained from Axon Medchem (Groningen, The Netherlands).

[1] = system: MDA-PCa-133 (ERG positive); assay: Human prostate cancer tissue xenograft (primagraft) MDA-PCa-133; type: in vivo, mice; conditions: MDA-PCa-133, 40 mg/kg Olaparib; P=0.05 (Day 8), P<0.01 (day 16, 24 and 32)
Protocol: (§1) Human prostate cancer specimens MDA-PCa 2b-T (ETV1 positive), MDA-PCa-133 (ERG positive) and MDA PCa 118b (ETS-negative) were obtained (Li, Z. G., et al. The Journal of clinical investigation 118, 2697-2710 (2008)). Each xenografted tumor tissue was aseptically harvested from the host mice. New recipient mice were anesthetized by injecting […] intraperitoneally for chemical restraint before tumor implantation. About 0.5 cm^3 size of the excised tumor tissue was directly implanted into subcutaneous pockets of 6- to 8-week-old male CB17 SCID mice (Charles River Laboratories) in a laminar flow sterile hood. Sub-cutaneous pocket was carefully closed by applying 1 or 2 wound clips. All mice were monitored for 24 hours after implantation procedure for any apparent physiologic disturbances or missing wound clips. Olaparib (40 mg/Kg body weight) treatment was started after 72 hours. […] Body weight was also monitored weekly during the course of the study.

[2] = system: MDA-PCa-2b-T (ETV1 positive); assay: Human prostate cancer tissue xenograft (primagraft) MDA-PCa-2b-T; type: in vivo, mice; conditions: 40 mg/kg Olaparib, P<0.01 (day 8, 12 and 16)
Protocol: as §1

[3] = system: ERG-target gene expression; assay: qPCR of ERG-target genes in staged PC3-ERG tumors; type: in vivo, mice; conditions: 4 hours, 40 mg/kg Olaparib or 25 mg/kg NU7026
[4] = Serum ALT and AST of PC3-ERG mice (liver toxicity); type: in vivo
[5] = system: PC3 cells expressing BRCA2 shRNA; assay: γ-H2A.X immunofluorescence, PC3 cells expressing BRCA2 shRNA; type: cell-based, human; conditions: BRCA2 depleted PC3 cells, Olaparib
Protocol: Cells were seeded at 25,000 cells/mL in 4-well chamber slide 24 hours prior to the addition of siRNA or drug as indicated. Merbarone (Sigma) was dissolved in DMSO and stored at 4° C. Cells were then washed once in PBS, fixed for 15 minutes in 100% methanol, washed in PBS, permeabilized for 5 minutes in PBS containing 0.2% Triton-X, washed twice in PBS, blocked for 30 minutes in PBS containing 0.5% donkey serum (Sigma, St. Louis, Mo.), held for 45 minutes in PBS containing 0.5% donkey serum and primary antibody: anti-γ-H2A.X mouse monoclonal (Millipore Cat #05-636), anti-γ-H2A.X rabbit polyclonal (Cell Signaling, Cat #9719, Danvers, Mass.), and anti-53BP1 rabbit polyclonal (Cell Signaling, Cat #4937, Danvers, Mass.) washed 3 times with PBS, held for 30 minutes in PBS containing 0.5% donkey serum and secondary antibody: Alexa Fluor 488-anti-Mouse (Invitrogen) or Alexa Fluor 594-anti-Rabbit (Invitrogen). Cells were then stained with DAPI for 5 minutes and slides were mounted 12 hours prior to analysis using Vectashield (Vector laboratories, Burlingame, Calif.). Images were taken using 100× oil lens on an Olympus Confocal microscope at the University of Michigan microscopy imaging lab.

[6] = system: Ewing's sarcoma cell lines; assay: Ewing's sarcoma cell lines: soft agar colony formation and neutral COMET assays; type: cell-based; conditions: with or without 10 μM Olaparib for 48 hours (COMET); soft agar colony formation
Protocol: The effect of PARP1 inhibitors on Ewing's sarcoma cell lines was assayed. CADO-ES1 or RD-ES1 cells were treated with siRNA for 48 hours. Cells were then harvested and plated in a transwell migration assay. Forty eight hours later, cells were stained with crystal violet and the total number or invaded cells was quantified. Soft agar colony formation was performed on cells treated with or without Olaparib. Neutral COMET assays were performed on a panel of Ewing's Sarcoma cell lines. PC3 was used as an ETS negative control and PC3-ERG for comparison to an ETS positive model. Cells were treated with or without 10 μM Olaparib for 48 hours. D) As in C, except cells were pre-treated with siRNA for 48 hours. All experiments were run in triplicate. Error bars are standard error of the mean.

DU145 cells = assay: Colony formation after radiation, isogenic DU145 model overexpressing T2:ERG; type: cell-based; conditions: DU145, pre-treated with 10 μM Olaparib
Protocol: The effect of ETS overexpression on radioresistance was assayed. Isogenic PC3 or DU145 models overexpressing either T2:ERG or ERG with a deleted ETS domain were pre-treated with or without 10 μM Olaparib and then treated with different doses of radiation as indicated. Colony formation was assessed. Experiments were also performed in which cells were pre-treated with either PARP1 or control siRNA prior to radiation. Western blot analysis was used to assess PARP knockdown efficiency in the inset. Total Poly(ADP-ribose) (or PAR) levels were assessed by Western blot analysis from total cell lysates. All experiments were run in triplicate. Error bars are standard error of the mean.

PC3-ERG xenografts = assay: PC3-ERG mouse xenograft model; conditions: P=0.007 for PARP inhibition
Protocol: Four weeks old male Balb C nu/nu mice were purchased from Charles River, Inc. (Charles River Laboratory, Wilmington, Mass.). VCaP (2×10^6 cells), PC3-luciferase-control (1×10^5 cells) or PC3-luciferase-ERG (1×10^5 cells) stable cells were resuspended in 100 μl of saline with 50% Matrigel (BD Biosciences, Becton Drive, NJ) and were implanted subcutaneously into the left flank region of the mice. Mice were anesthetized using a cocktail of xylazine (80-120 mg/kg, IP) and ketamine (10 mg/kg, IP) for chemical restraint before tumor implantation. All tumors were staged for three week before starting the drug treatment. After week 3 for VCaP cells or after 48 hours for PC3 cells, mice (10 per treatment group) were treated with NU7026 (25 mg/kg, IP), Olaparib (40 mg/kg, IP) daily five times a week. Olaparib was obtained from Axon Medchem (Groningen, The Netherlands). Growth in tumor volume was recorded weekly by using digital calipers and tumor volumes were calculated using the formula (π/6) (L×W2), where L=length of tumor and W=width. Loss of body weight during the course of the study was also monitored weekly.

SMILES: O=C(c1cc(Cc2n[nH]c(=O)c3ccccc23)ccc1F)N1CCN(C(=O)C2CC2)CC1 [Olaparib, 4-[3-(4-Cyclopropanecarbonylpiperazine-1-carbonyl)-4-fluorobenzyl]-2H-phthalazin-1-one]
- effect on tumors (MDA-MB-231 (BRCA1/2 WT)): no measurable effect
- xenograft growth (DU145 xenografts): not responsive; also recorded: did not inhibit the growth
- primagraft growth [1]: inhibited the growth
- primagraft growth [2]: inhibited the growth
- ERG-target gene expression in tumors (qPCR) [3]: loss of ERG-target gene expression
- liver toxicity as assessed by serum levels of ALT and AST [4]: did not lead to liver toxicity
- γ-H2A.X staining [5]: similarly dramatic increase in γ-H2A.X staining
- sensitivity of Ewing's sarcoma cell lines [6]: sensitive to PARP1; also recorded: sensitive to PARP inhibition
- ERG induced radiation resistance (colony formation) (DU145 cells): blocks ERG induced radiation resistance; also recorded: reversed by PARP inhibition
- xenograft growth (PC3-ERG xenografts): significantly sensitize the PC3 cells to PARP inhibition
